The test system of the experiment is Staphylococcus aureus K2378 (overexpresses the efflux pump NorA from a multicopy plasmid). Briefly: Efflux pump inhibition assay with sub-inhibitory ciprofloxacin. Format: cell-based. Particulars: S. aureus K2378; in the presence of ciprofloxacin 0.5 mg/L.

On to `Cn1cc(C(=O)NC(CNC(=O)OC(C)(C)C)c2c[nH]c3ccc(Br)cc23)c2cc(Br)ccc21` (stereo not shown) [Compound 7, tert-Butyl (2-(5-bromo-1-methyl-1H-indole-3-carboxamido)-2-(5-bromo-1H-indol-3-yl)ethyl) carbamate], for which the “MIC, mg/L (Ciprofloxacin concentration, mg/L)” value was 0.125 (0.5) mg/L.

(Values after US9676715B2, “Bis-indolic derivatives, a process for preparing the same and their uses as a drug” (UNIVERSITE JOSEPH FOURIER, priority 2011, dated 2017).)
